Measured values taken from patent publication US8580534B2, “Method for incorporation of two oxygen atoms into digested peptides using peptidases” (The University of North Dakota, priority 2006, dated 2013).

Experiments:
[1] = system: apomyoglobin peptide that has a lysine residue at the C-terminus (Lys-peptide); assay: 18O atom incorporation into apomyoglobin Lys-peptides by LC/MS; assay type: biochemical, Horse
Protocol: (§1) We semi-quantitatively measured the rate of ^18O atom incorporation into Lys-C and tryptic peptides derived from apomyoglobin. This was done to test whether the increased rate of carboxyl oxygen exchange noted for the reaction of Ac-Lys-OH at acidic pH could be generalized to peptide substrates. Apomyoglobin (34 μg) was digested for 16 hours at 25° C. with either 1 μg of Lys-C or trypsin in 100 mM ammonium bicarbonate in H2^16O solvent. The digestion was stopped by adding formic acid to a final concentration of 1% and by boiling the reaction mixture for 2 minutes. The resulting Lys-C and tryptic peptides were lyophilized and used in the following experiments.
(§2) The rate of the carboxyl oxygen exchange reaction into the Lys-C and tryptic peptides by Lys-C and trypsin, respectively, were semi-quantitatively measured by looking at the rate of ^18O atom incorporation into the carboxyl termini of the peptides by LC/MS (described below). The Lys-C and tryptic digests (both 1.5 μg) were incubated with Lys-C and trypsin (both 0.03 μg), respectively, in H2^18O at 30° C. buffered (see above) at pH 5.0 or 9.0 for Lys-C and pH 6.0 or 8.0 for trypsin for various reaction times (1 minute-60 minutes). The total reaction volume was 50 μL. Aliquots (5 μL) of the reaction mixtures were taken after 1, 5, 10, and 60 minutes. The reactions were stopped by mixing with 40 μL of 10% formic acid and by heating at 95° C. for 2 minutes. After the heat treatment, the solvents were evaporated in the speed-vac concentrator and the samples were stored at −20° C. until use.
The stored ^18O labeled peptide mixtures were reconstituted in 20 μL of aqueous 0.1% trifluoroacetic acid (TFA), desalted by a C18 ZipTip as per the manufacturer's instructions (Millipore, Bedford, Mass.), and subjected to LC/MS analysis using an UltiMate nano HPLC system (Dionex, San Francisco, Calif.) interfaced to a QStar quadrupole/time of flight mass spectrometer (Applied Biosystems-MDS Sciex, Foster City, Calif.), as described previously. Briefly, the peptide mixture (5 μl) was injected directly into a reverse-phase analytical column (0.075×60 mm, New Objective Inc., Woburn, Mass.) packed with Jupiter C18 media (Phenomenex, Torrance, Calif.), washed with 2% acetonitrile/0.1% formic acid (v/v) in water for 15 minutes at flow rate of 2 μL/min. The peptides were then eluted with a 40 minute linear gradient of 2% acetonitrile/0.1% formic acid (v/v) in water to 40% acetonitrile/0.1% formic acid (v/v) in water at a flow rate of 200 nL/min. The column effluent was directed on-line to a nano-electrospray ion source. The total ion current was obtained in the mass range of m/z 400-1600 in the positive ion mode. The electrospray and orifice voltages were 2050V and 65V, respectively.

[2] = pH dependency of the carboxyl oxygen exchange reaction (18O incorporation into Ac-Lys-OH); assay type: biochemical; conditions: 10 mM Ac-Lys-OH, 1 μM enzyme, 25° C., 95% H2^18O, pH 4.0-9.0 examined
Protocol: The initial rate of carboxyl oxygen exchange reaction catalyzed by Lys-C and trypsin was determined by monitoring the rate of ^18O atom incorporation into the carboxyl terminus of Ac-Lys-OH. For the pH studies, a 10 mM solution of Ac-Lys-OH in aqueous buffers at different pHs was incubated with 1 μM Lys-C or trypsin at 25° C. in 95% H2^18O buffered at various pHs. The buffer solutions used were 50 mM citrate at pH 4.0, 5.0 and 6.0 (pH adjusted by addition of NaOH), 50 mM phosphate at pH 7.0 and 8.0 (pH adjusted by addition of NaOH) and 50 mM Tris at pH 9.0 (pH adjusted by addition of HCl). The duration of the reaction was 5 minutes for Lys-C and 20 minutes for trypsin. […] The single ^18O atom incorporated reaction product, Ac-Lys-^18OH, in the reconstituted reaction solution was then quantified by stable isotope dilution tandem mass spectrometry, as described below. […]
(§3) An Agilent 1100 HPLC system (Palo Alto, Calif.) coupled to an API 3000 triple quadrupole mass spectrometer equipped with a TurbolonSpray™ ion source (Applied Biosystems-MDS-Sciex, Foster City, Calif.) was used to quantify Ac-Lys-^18OH. […]
(§4) Amounts of Ac-Lys-^18OH in the reaction mixture were determined from the chromatographic peak area ratios of the analyte over the internal standard, assuming identical ionization efficiencies and identical yields of fragment ions for Ac-Lys-^18OH and [^13C2]Ac-Lys-OH. […]

[3] = steady-state kinetic parameters for the carboxyl oxygen exchange reaction; assay type: biochemical
Protocol: The steady-state kinetic parameters for the carboxyl oxygen exchange reaction by Lys-C and trypsin were obtained at two different pHs (pH 9.0 and 5.0 for Lys-C and pH 8.0 and 6.0 for trypsin). Ac-Lys-OH (0.0625-10 mM) was incubated with 1 uM Lys-C or trypsin at 30° C. in 95% H2^1 80 buffered at various pHs (described above). The total volume of the reaction was 20 μL. The duration of the reaction was 10 min for Lys-C and 20 min for trypsin. The single ^18O atom incorporated reaction product, Ac-Lys-180H, was quantified after addition of a [^13C2]Ac-Lys-OH internal standard (0.75 μg) by stable isotope dilution tandem mass spectrometry, as described below. All reactions were carried out in triplicate.
Km and Vmax values were calculated by fitting the Michaelis-Menten equation to the experimental data using SigmaPlot 9.01 (Systat Software, Richmond, Calif.). Kcat values were calculated by dividing the obtained Vmax values by the total enzyme amount added to the system.
An Agilent 1100 HPLC system (Palo Alto, Calif.) coupled to an API 3000 triple quadrupole mass spectrometer equipped with a TurbolonSpray™ ion source (Applied Biosystems-MDS-Sciex, Foster City, Calif.) was used to quantify Ac-Lys-^18OH. The reconstituted reaction mixtures were injected (typically 5 μL) onto a reversed-phase C18 column (2.1×150 mm, 5 μm, 300 Å, Vydac) equilibrated with 5% acetonitrile/0.1% HFBA (v/v) in water and then eluted with the same solvent at a flow rate of 200 μL/min. A switching valve (Valco Instrument, Houston, Tex.) was placed between the HPLC system and the mass spectrometer to divert non-volatile salt fractions from the mass spectrometer at the beginning of the run. The switching valve was switched in-line with the mass spectrometer at 3 minutes after the injection. The elution time of Ac-Lys-^18OH was 3.8 minutes.
The ion spray voltage and the ion source probe temperature were set at 5 kV and 400° C., respectively. Nitrogen was used both as a nebulizer and as an auxiliary gas, at flow rates of 3 and 8 L/min, respectively. A multiple reaction monitoring mode was used for monitoring Ac-Lys-^18OH and [^13C2]Ac-Lys-OH. The precursor and fragment ions monitored were m/z 191 (Ac-Lys-^18OH+H) and 149 (H-Lys-^18OH+H) for Ac-Lys-^18OH and m/z 191 ([^13C2]Ac-Lys-OH+H) and 147 (H-Lys-^16OH+H) for [^13C2]Ac-Lys-OH, respectively. […]
as §4, with “[^13C2]Ac-Lys-OH. The experimentally determined amounts of Ac-Lys-^18OH were corrected upward 5%, accounting for 60 incorporation resulting from the H2^18O solvent having a 5% H2^16O content.” for “[^13C2]Ac-Lys-OH.”

[4] = amidase activity (hydrolysis of Ac-Lys-NH2 in H2^18O); assay type: biochemical; conditions: 10 mM Ac-Lys-NH2, 25° C., 95% H2^18O, within the pH range examined
Protocol: The amidase activity of Lys-C and trypsin was measured by monitoring the initial rate of hydrolysis of Ac-Lys-NH2 in H2^18O. Ac-Lys-NH2 (10 mM) was incubated with 0.2 uM Lys-C or 1 uM trypsin at 25° C. in 95% H2^18O at various pHs. The buffer solutions used were the same as described above for the carboxyl oxygen exchange reactions. The duration of the reaction was 5 min for Lys-C and 20 min for trypsin. The single ^18O atom incorporated reaction product, Ac-Lys-^18OH, was quantified after addition of a [^13C2]Ac-Lys-OH internal standard (0.75 μg) by stable isotope dilution tandem mass spectrometry, as described below. All reactions were carried out in triplicate.
as §3
The ion spray voltage and the ion source probe temperature were set at 5 kV and 400° C., respectively. […] The precursor and fragment ions monitored were m/z 191 (Ac-Lys-^18OH+H) and 149 (H-Lys-^18OH+H) for Ac-Lys-^18OH and m/z 191 ([^13C2]Ac-Lys-OH+H) and 147 (H-Lys-^16OH+H) for [^13C2]Ac-Lys-OH, respectively. […]

[5] = system: peptide that has an arginine residue at the C-terminus (Arg-peptide); assay: 18O atom incorporation into apomyoglobin Arg-peptides by LC/MS; assay type: biochemical, Horse; conditions: for time to complete incorporation of two ^18O atoms: H2^18O
Protocol: as §1, §2
The stored ^18O labeled peptide mixtures were reconstituted in 20 μL of aqueous 0.1% trifluoroacetic acid (TFA), desalted by a C18 ZipTip as per the manufacturer's instructions (Millipore, Bedford, Mass.), and subjected to LC/MS analysis using an UltiMate nano HPLC system (Dionex, San Francisco, Calif.) interfaced to a QStar quadrupole/time of flight mass spectrometer (Applied Biosystems-MDS Sciex, Foster City, Calif.), as described previously. […]

## trypsin
[1]; pH 6.0, 30° C., H2^18O
  time to complete incorporation of two ^18O atoms: ≤ 10 min
[1]; pH 6.0 and 8.0
  dominant result after 1 minute of incubation: incorporation of only one ^18O atom
[1]; pH 8.0, 30° C., H2^18O
  dominant result of ^18O incorporation: incorporation of only one ^18O atom
  time to complete incorporation of two ^18O atoms: > 60 min
[2]
  optimum pH of the carboxyl oxygen exchange reaction: 6.0 pH
[3]; pH 6.0 versus N-benzoyl-L-lysine amide hydrolysis at pH 8.0
  kcat/Km of carboxyl oxygen exchange, fold lower than reported kcat/Km for amide hydrolysis: 5.1 fold
[3]; pH 6.0 versus pH 8.0
  Km, fold smaller at acidic than at alkaline pH: about 3 fold
  kcat, fold higher at acidic than at alkaline pH: about 5 fold
[3]; pH 9.0
  rate of the carboxyl oxygen exchange: too low
[4]
  most favorable pH for the amidase activity: 9 pH
[5]; both pH 6.0 and 8.0
  dominant peak after 1 minute of incubation: two ^18O atoms
[5]; pH 6.0, 30° C.
  time to complete incorporation of two ^18O atoms: ≤ 10 min
[5]; pH 8.0, 30° C.
  time to complete incorporation of two ^18O atoms: 60 min
